The target of assay [1] is T1, LXRβ (Homo sapiens, UniProt P55055).
T1 construct: CMX-GAL4N-hLXRβ-LBD; expressed in transfected cells; host or cells: HEK293
T1 sequence (P55055 222-460 limits assumed): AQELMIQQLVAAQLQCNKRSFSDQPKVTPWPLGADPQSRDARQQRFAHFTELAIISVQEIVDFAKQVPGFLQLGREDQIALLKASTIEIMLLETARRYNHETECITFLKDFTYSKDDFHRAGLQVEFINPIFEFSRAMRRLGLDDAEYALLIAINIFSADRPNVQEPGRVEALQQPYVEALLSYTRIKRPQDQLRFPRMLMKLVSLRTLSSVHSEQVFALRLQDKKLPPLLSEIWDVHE
As to conditions: read-out: LXRβ antagonistic activity (IC50); cited from earlier work.

Assay [2] has as its target T2, PR (Homo sapiens, UniProt P06401).
T2 sequence (P06401 1-933): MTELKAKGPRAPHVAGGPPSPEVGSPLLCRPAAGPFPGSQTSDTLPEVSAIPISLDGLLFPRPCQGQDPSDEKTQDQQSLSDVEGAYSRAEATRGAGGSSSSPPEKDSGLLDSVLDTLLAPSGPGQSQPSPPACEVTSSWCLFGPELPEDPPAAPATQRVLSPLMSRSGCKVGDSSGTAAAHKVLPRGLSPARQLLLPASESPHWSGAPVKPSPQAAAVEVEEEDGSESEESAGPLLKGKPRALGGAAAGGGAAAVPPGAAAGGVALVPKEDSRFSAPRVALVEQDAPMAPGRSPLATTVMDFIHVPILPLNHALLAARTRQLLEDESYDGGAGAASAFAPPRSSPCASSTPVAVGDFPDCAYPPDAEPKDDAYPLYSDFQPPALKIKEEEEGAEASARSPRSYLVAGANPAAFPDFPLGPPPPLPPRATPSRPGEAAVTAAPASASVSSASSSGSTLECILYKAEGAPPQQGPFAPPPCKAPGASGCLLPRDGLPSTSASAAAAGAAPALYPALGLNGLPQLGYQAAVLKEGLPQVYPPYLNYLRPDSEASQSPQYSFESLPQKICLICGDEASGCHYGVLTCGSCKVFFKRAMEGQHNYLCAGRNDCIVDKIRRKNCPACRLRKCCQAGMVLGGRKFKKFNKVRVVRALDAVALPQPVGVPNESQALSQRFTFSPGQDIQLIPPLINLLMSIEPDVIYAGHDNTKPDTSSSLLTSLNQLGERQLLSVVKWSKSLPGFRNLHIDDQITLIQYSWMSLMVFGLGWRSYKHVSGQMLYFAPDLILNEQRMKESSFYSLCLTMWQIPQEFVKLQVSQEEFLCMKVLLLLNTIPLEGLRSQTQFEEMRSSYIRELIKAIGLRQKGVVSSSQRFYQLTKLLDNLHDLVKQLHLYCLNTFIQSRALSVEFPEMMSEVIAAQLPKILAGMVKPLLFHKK
Nature of the assay: T-47D alkaline phosphatase assay (PR antagonism). It counts as cell-based.

Assay [3] deals with T3, RORγ (Homo sapiens, UniProt P51449).
T3 construct: expressed in transfected cells; host or cells: HEK293
T3 sequence (P51449 1-518): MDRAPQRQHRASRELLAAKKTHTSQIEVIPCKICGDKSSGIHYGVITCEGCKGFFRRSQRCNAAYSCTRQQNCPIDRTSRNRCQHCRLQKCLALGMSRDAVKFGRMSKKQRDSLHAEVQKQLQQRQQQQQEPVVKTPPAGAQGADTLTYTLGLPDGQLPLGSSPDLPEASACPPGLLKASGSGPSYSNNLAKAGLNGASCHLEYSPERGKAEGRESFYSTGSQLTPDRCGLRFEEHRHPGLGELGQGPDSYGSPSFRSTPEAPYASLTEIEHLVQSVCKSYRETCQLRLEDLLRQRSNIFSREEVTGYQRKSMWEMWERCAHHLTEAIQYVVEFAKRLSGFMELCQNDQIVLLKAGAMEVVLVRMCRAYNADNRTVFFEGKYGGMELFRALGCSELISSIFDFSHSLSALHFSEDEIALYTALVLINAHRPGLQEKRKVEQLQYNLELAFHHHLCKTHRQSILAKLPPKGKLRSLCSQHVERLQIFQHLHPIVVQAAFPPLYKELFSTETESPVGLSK
Briefly: RORγ inverse agonist reporter gene assay in HEK293. It is filed as cell-based. The following applies: new compound 43, read-out: RORγ inverse agonistic activity (IC50). On the technique in general: In a reporter assay the amount or activity of a reporter protein is the signal.

Assay [4] concerns the target T4, RORα (Homo sapiens, UniProt P35398).
T4 construct: expressed in transfected cells; host or cells: HEK293
T4 sequence (P35398 1-523): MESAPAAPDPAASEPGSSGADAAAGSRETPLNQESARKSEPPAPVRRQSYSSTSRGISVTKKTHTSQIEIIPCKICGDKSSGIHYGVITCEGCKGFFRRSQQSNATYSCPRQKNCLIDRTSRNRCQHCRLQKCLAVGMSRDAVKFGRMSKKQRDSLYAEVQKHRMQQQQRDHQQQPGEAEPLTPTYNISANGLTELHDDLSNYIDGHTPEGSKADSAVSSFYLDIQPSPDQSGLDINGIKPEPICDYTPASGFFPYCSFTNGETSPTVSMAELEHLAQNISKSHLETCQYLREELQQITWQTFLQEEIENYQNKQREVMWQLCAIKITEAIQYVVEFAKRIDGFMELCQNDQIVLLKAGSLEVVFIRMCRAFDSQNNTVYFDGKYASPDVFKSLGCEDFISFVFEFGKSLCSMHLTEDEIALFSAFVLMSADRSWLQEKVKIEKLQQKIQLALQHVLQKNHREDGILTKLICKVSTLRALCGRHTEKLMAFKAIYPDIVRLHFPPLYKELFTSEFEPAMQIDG
Nature of the assay: RORα inverse agonist reporter gene assay in HEK293. It is filed as cell-based. The following applies: new compound 43, read-out: RORα inverse agonistic activity (IC50).

For assay [5], the target named is T5, RORβ (Homo sapiens, UniProt Q92753).
T5 construct: expressed in transfected cells; host or cells: HEK293
T5 sequence (Q92753 1-459 isoform Q92753-1): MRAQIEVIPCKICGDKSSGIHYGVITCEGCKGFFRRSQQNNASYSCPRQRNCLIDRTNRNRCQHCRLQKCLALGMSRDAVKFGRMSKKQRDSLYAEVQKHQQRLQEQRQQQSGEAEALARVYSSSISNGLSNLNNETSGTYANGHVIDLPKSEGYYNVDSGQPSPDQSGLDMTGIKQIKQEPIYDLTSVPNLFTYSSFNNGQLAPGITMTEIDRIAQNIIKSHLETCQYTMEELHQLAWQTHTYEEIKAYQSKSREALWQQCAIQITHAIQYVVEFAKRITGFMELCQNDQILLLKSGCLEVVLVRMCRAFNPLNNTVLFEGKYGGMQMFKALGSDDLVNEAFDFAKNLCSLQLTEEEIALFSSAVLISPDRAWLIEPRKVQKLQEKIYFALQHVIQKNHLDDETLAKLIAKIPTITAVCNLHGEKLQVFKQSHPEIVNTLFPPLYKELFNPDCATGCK
Nature of the assay: RORβ inverse agonist reporter gene assay in HEK293. As to conditions: new compound 43, read-out: RORβ inverse agonistic activity (IC50). It counts as cell-based.

Bounds are passed on as bounds.

By IC50 is commonly meant the point on the concentration scale where inhibition reaches its midpoint. With `Cn1c(=O)c2ccccc2c2cc(C(O)(C(F)(F)F)C(F)(F)F)ccc21` [Compound 13], the IC50 in assay [1] is over 20 µM.
As to `O=c1[nH]c2c(Cl)cc(C(O)(C(F)(F)F)C(F)(F)F)cc2c2ccccc12` [Compound 43, 4-Chloro-2-(1,1,1,3,3,3-hexafluoro-2-hydroxypropan-2-yl)phenanthridin-6(5H)-one], the IC50 in assay [2] (alkaline phosphatase, T47D cells, progesterone 1 nM, new compound 43, read-out: PR antagonistic activity (IC50)) is 0.35 µM; in assay [3], over 20 µM; in assay [4] it was over 20 µM; in assay [5], over 20 µM.
As for `CCCCn1c(=O)c2ccc(OC)cc2c2cc(C(O)(C(F)(F)F)C(F)(F)F)ccc21` [Compound 23], the “weaker PR activity than 12” value in assay [2] was found to be 5 fold.
Turning to `O=c1[nH]c2ccc(C(O)(C(F)(F)F)C(F)(F)F)cc2c2ccccc12` [Compound 1], the IC50 in assay [1] is 5.1 µM.
